Measured values reported in patent US8901307B2, “Chemical compounds 251” (AstraZeneca AB, priority 2008, dated 2014).
Counter-ions that a name gives are not always drawn.

Tests used:
human His-PIM2 [23-299] = target: T1, human His-PIM2 [23-299] (Homo sapiens, UniProt Q9P1W9); assay: PIM2 in-vitro mobility shift assay (Caliper LC3000, FL-Ahx-Bad phosphorylation); format: biochemical; details: 1.5 h; percent inhibition at 0.3 uM compound; read-out: PIM2 % I at 0.3 uM
T1 construct: purified human His-PIM2 [23-299] enzyme; His (N); host or cells: E. coli
Excerpt: PIM2 In-Vitro Mobility Shift Assay
(§1) One may determine the activity of purified human His-PIM2 [23-299] enzyme in-vitro using a mobility shift assay on a Caliper LC3000 reader (Caliper, Mass.), which measures fluorescence of a phosphorylated and unphosphorylated FL-Ahx-Bad (FITC-(AHX)RSRHSSYPAGT-COOH, Primm 200606-00289, Primm Biotech, Mass.) and calculates a ratiometric value to determine percent turnover. One may express PIM2 (produced at AstraZeneca, R&D Boston) in E. coli cells with a typical yield of >90% purity.
One determines phosphorylation of the FL-Ahx-Bad in the presence and absence of the compound of interest. One preincubates 5 uL of Enzyme/Substrate/adenosine triphosphate (ATP) mix consisting of 2.4 nM […], 3.6 uM FL-Ahx-Bad, and 12 uM ATP in 1.2× buffer with 2 ul of compound for 20 minutes at 25° C. One initiates reactions with 5 uL of Metal mix consisting of 24 mM MgCl2 in 1.2× buffer and incubates at 25° C. for 90 minutes. One stops reactions by addition of 5 uL of Stop mix consisting of 100 mM HEPES, 121 mM ethylenediamine tetraacetic acid, 0.8% Coatin Reagent 3 (Caliper, Mass.), and 0.01% Tween. One detects phosphorylated and unphosphorylated substrate by a Caliper LC3000 reader (Caliper, Mass.) in the presence of separation buffer consisting of 100 mM HEPES, 16 mM ethylenediamine tetraacetic acid, 0.1% Coatin Reagent 3 (Caliper, Mass.), 0.015% Brij-35, 5% DMSO, and 5.6 mM MgCl2. One may use the following separation conditions for a Caliper LC3000: −1.0 PSI, −2000 V upstream voltage, −400 V downstream voltage, 0.2 second sample sip, 45 second post sip, 10% laser strength.

human His-PIM1 [2-313] = target: T2, human His-PIM1 [2-313] (Homo sapiens, UniProt P11309); assay: PIM1 in-vitro mobility shift assay (Caliper LC3000, FL-Ahx-Bad phosphorylation); format: biochemical; details: 1.5 h; percent inhibition at 0.3 uM compound; read-out: PIM1 % I at 0.3 uM
T2 construct: purified human His-PIM1 [2-313] enzyme; His (N); purchased University of Dundee, Scotland; host or cells: baculovirus system
Excerpt: PIM1 In-Vitro Mobility Shift Assay
as §1, with “His-PIM1 [2-313]” for “His-PIM2 [23-299]”, “PIM1 (University of Dundee, Scotland)” for “PIM2 (produced at AstraZeneca, R&D Boston)”, “baculovirus system” for “E. coli cells”, “>85%” for “>90%”
One determines phosphorylation of the FL-Ahx-Bad in the presence and absence of the compound of interest. One preincubates 5 µl of Enzyme/Substrate/adenosine triphosphate (ATP) mix consisting of 2.4 nM PIM1, 3.6 uM FL-Ahx-Bad, and 240 uM ATP in 1.2× buffer with 2 ul of compound for 20 minutes at 25° C. One initiates reactions with 5 ul of Metal mix consisting of 24 mM MgCl2 in 1.2× buffer and incubated at 25° C. for 90 minutes and stops the reactions by addition of 5 ul of Stop mix consisting of 100 mM HEPES, 121 mM ethylenediamine tetraacetic acid, 0.8% Coatin Reagent 3 (Caliper, Mass.), and 0.01% Tween. One detects phosphorylated and unphosphorylated substrate by a Caliper LC3000 reader (Caliper, Mass.) in the presence of separation buffer consisting of 100 mM HEPES, 16 mM ethylenediamine tetraacetic acid, 0.1% Coatin Reagent 3 (Caliper, Mass.), 0.015% Brij-35, 5% DMSO, and 5.6 mM MgCl2. One may use the following separation conditions for a Caliper LC3000: −1.0 PSI, −2000 V upstream voltage, −400 V downstream voltage, 0.2 second sample sip, 45 second post sip, 10% laser strength.
The table 1 below provides the percent inhibition of PIM1 at 0.3 micromolar for Examples provided herein. Several examples were tested more than once. Variations in the experimental outcomes, negative values, or values over 100% inhibition are presumably due to experimental error inherent in the assay.

T2 sequence (P11309 2-313): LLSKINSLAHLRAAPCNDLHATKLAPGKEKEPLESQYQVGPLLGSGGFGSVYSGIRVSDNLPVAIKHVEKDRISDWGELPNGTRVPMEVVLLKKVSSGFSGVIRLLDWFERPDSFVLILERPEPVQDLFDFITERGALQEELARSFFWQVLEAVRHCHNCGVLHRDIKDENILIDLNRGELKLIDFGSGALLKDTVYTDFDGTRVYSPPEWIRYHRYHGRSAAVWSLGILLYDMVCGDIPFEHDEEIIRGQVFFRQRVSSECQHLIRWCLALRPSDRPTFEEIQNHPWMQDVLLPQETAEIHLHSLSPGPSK
T1 sequence (Q9P1W9 23-299): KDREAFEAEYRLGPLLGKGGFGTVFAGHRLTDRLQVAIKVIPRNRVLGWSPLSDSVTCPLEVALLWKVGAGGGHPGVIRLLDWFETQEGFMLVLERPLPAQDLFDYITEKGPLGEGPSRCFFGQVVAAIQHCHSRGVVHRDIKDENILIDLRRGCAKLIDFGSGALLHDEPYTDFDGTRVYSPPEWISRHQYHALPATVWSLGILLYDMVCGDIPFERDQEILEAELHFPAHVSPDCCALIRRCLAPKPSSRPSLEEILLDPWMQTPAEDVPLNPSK

**Q.** What does the source list for `N[C@H]1CN(c2c(Cl)cccc2/C=C2\SC(=O)NC2=O)CC[C@@H]1O` (racemic) [Example 122M, (±)-(Z)-5-(2,3-amino-4-hydroxypiperidin-1-yl)-3-chlorobenzylidene)thiazolidine-2,4-dione hydrochloride]?
**A.** inhibition at 0.3 µM (human His-PIM2 [23-299]): > 95%; inhibition at 0.3 µM (human His-PIM1 [2-313]): > 95%

**Q.** With `O=C1NC(=O)C(=Cc2c[nH]c3ccccc23)S1` (stereo in doubt) [Example 67, (Z)-5-((1H-indol-3-yl)methylene)thiazolidine-2,4-dione] as the compound, how does the inhibition at 0.3 µM (human His-PIM2 [23-299]) read?
**A.** < 5%

**Q.** Which results are given for `N[C@H]1CCCN(c2c(Cl)cc(C(F)(F)F)cc2/C=C2\SC(=O)NC2=O)C1` [Example 1, (S,Z)-5-(2-(3-aminopiperidin-1-yl)-3-chloro-5-(trifluoromethyl)benzylidene)thiazolidine-2,4-dione trifluoroacetate]?
**A.** inhibition at 0.3 µM (human His-PIM2 [23-299]): 77.7%; inhibition at 0.3 µM (human His-PIM1 [2-313]): > 95%

**Q.** What does the source list for `N[C@@H]1CCCN(c2c(Cl)cc(C(F)(F)F)cc2/C=C2\SC(=O)NC2=O)C1` [Example 2]?
**A.** inhibition at 0.3 µM (human His-PIM2 [23-299]): > 95%; inhibition at 0.3 µM (human His-PIM1 [2-313]): > 95%

**Q.** `NC1CCN(c2c(Cl)cc(C(F)(F)F)cc2/C=C2\SC(=O)NC2=O)CC1` [Example 3] was tested. Which inhibition at 0.3 µM (human His-PIM2 [23-299]) did it give?
**A.** 58%

**Q.** And the inhibition at 0.3 µM (human His-PIM1 [2-313])?
**A.** > 95%

**Q.** Which inhibition at 0.3 µM (human His-PIM2 [23-299]) does the source give for `NCC1CCCN(c2c(Cl)cc(C(F)(F)F)cc2/C=C2\SC(=O)NC2=O)C1` (stereo not shown) [Example 4] here?
**A.** 79.6%

**Q.** What about the inhibition at 0.3 µM (human His-PIM1 [2-313]) of the same compound?
**A.** > 95%

**Q.** Which results are given for `O=C1NC(=O)/C(=C/c2cc(C(F)(F)F)cc(Cl)c2N2CCCNCC2)S1` [Example 5A]?
**A.** inhibition at 0.3 µM (human His-PIM2 [23-299]): 79.9%; inhibition at 0.3 µM (human His-PIM1 [2-313]): > 95%

**Q.** What does the source list for `N[C@H]1CCN(c2c(Cl)cc(C(F)(F)F)cc2/C=C2\SC(=O)NC2=O)C1` [Example 5B]?
**A.** inhibition at 0.3 µM (human His-PIM2 [23-299]): > 95%; inhibition at 0.3 µM (human His-PIM1 [2-313]): > 95%

**Q.** Which results are given for `O=C1NC(=O)/C(=C/c2cc(C(F)(F)F)cc(Cl)c2N2CCN(C3CCCC3)CC2)S1` [Example 6, (Z)-5-(3-chloro-2-(4-cyclopentylpiperazin-1-yl)-5 (trifluoromethyl)benzylidene)thiazolidine-2,4-dione hydrochloride]?
**A.** inhibition at 0.3 µM (human His-PIM2 [23-299]): 9.5%; inhibition at 0.3 µM (human His-PIM1 [2-313]): 79.4%

**Q.** How did the inhibition at 0.3 µM (human His-PIM2 [23-299]) turn out when `O=C1NC(=O)/C(=C/c2cc(C(F)(F)F)cc(Cl)c2N2CCN(c3ccc(F)cc3)CC2)S1` [Example 7] was run?
**A.** < 5%

**Q.** And the inhibition at 0.3 µM (human His-PIM1 [2-313])?
**A.** 5.4%

**Q.** For `O=C1NC(=O)/C(=C/c2cc(C(F)(F)F)cc(Cl)c2N2CCN(Cc3ccc4c(c3)OCO4)CC2)S1` [Example 8], which inhibition at 0.3 µM (human His-PIM2 [23-299]) is on record?
**A.** < 5%

**Q.** And the inhibition at 0.3 µM (human His-PIM1 [2-313])?
**A.** 16.3%

**Q.** Which inhibition at 0.3 µM (human His-PIM2 [23-299]) does the source give for `Cc1noc(C2CCN(c3c(Cl)cc(C(F)(F)F)cc3/C=C3\SC(=O)NC3=O)CC2)n1` [Example 9] here?
**A.** < 5%

**Q.** And the inhibition at 0.3 µM (human His-PIM1 [2-313])?
**A.** 6.9%

**Q.** For `O=C1NC(=O)/C(=C/c2cc(C(F)(F)F)cc(Cl)c2N2CCC(N3CCCC3)CC2)S1` [Example 10], which inhibition at 0.3 µM (human His-PIM2 [23-299]) is on record?
**A.** 50.1%

**Q.** And the inhibition at 0.3 µM (human His-PIM1 [2-313])?
**A.** > 95%

**Q.** With `CC(C)N1CCN(c2c(Cl)cc(C(F)(F)F)cc2/C=C2\SC(=O)NC2=O)CC1` [Example 11] as the compound, how does the inhibition at 0.3 µM (human His-PIM2 [23-299]) read?
**A.** 17.9%

**Q.** And the inhibition at 0.3 µM (human His-PIM1 [2-313])?
**A.** 89.4%

**Q.** With `CC(C)CN1CCN(c2c(Cl)cc(C(F)(F)F)cc2/C=C2\SC(=O)NC2=O)CC1` [Example 12] as the compound, how does the inhibition at 0.3 µM (human His-PIM2 [23-299]) read?
**A.** < 5%

**Q.** What about the inhibition at 0.3 µM (human His-PIM1 [2-313]) of the same compound?
**A.** 80.2%

**Q.** With `O=C1NC(=O)/C(=C/c2cc(C(F)(F)F)cc(Cl)c2N2CCC(CCO)CC2)S1` [Example 13] as the compound, how does the inhibition at 0.3 µM (human His-PIM2 [23-299]) read?
**A.** < 5%

**Q.** What about the inhibition at 0.3 µM (human His-PIM1 [2-313]) of the same compound?
**A.** < 5%

**Q.** Which results are given for `CN(C)[C@H]1CCN(c2c(Cl)cc(C(F)(F)F)cc2/C=C2\SC(=O)NC2=O)C1` [Example 14]?
**A.** inhibition at 0.3 µM (human His-PIM2 [23-299]): 69.9%; inhibition at 0.3 µM (human His-PIM1 [2-313]): > 95%

**Q.** How did the inhibition at 0.3 µM (human His-PIM2 [23-299]) turn out when `O=C1NC(=O)/C(=C/c2cc(C(F)(F)F)cc(Cl)c2N2CCN(c3ccc(Cl)cc3F)CC2)S1` [Example 15] was run?
**A.** < 5%

**Q.** What about the inhibition at 0.3 µM (human His-PIM1 [2-313]) of the same compound?
**A.** 12.9%

**Q.** Which inhibition at 0.3 µM (human His-PIM2 [23-299]) does the source give for `Cc1noc(C2CCCN(c3c(Cl)cc(C(F)(F)F)cc3/C=C3\SC(=O)NC3=O)C2)n1` (stereo not shown) [Example 16] here?
**A.** < 5%

**Q.** And the inhibition at 0.3 µM (human His-PIM1 [2-313])?
**A.** 13.9%
